{"source": "ChEMBL document CHEMBL3507680", "about": "“University of Dundee, Gates Library screen for HepG2 cell viability”"}
{"assay": "Human HepG2 cell viability assay in 384 well format", "format": "toxicity, cell-based", "parameters": "dose 125 nL, time 70.5 hour; cytotoxicity at 70.5 h: concentration not given beside the values", "settings": "HepG2 cells, read-out: Inhibition", "units": {"cytotoxicity at 70.5 h": "%"}}
{"smiles": "O=C1CCCCN1c1cccc(CNC2CCCC2)c1", "cytotoxicity at 70.5 h": -17.9}
{"smiles": "COc1ccccc1CNC(C)c1cnc2cc(C)nn2c1C", "note": "(stereo unspecified)", "cytotoxicity at 70.5 h": -1.5}
{"smiles": "O=C(Cc1c[nH]c2ccccc12)N1CCN(C(=O)c2ccoc2)CC1", "cytotoxicity at 70.5 h": 1.6}
{"smiles": "O=C(c1coc2ccccc12)N1CCCC1", "cytotoxicity at 70.5 h": -9.29}
{"smiles": "O=C([C@@H]1Cc2[nH]cnc2CN1C(=O)NC1CCCCC1)N1CCCC1", "cytotoxicity at 70.5 h": -7.01}
{"smiles": "CC(C)c1nc2c(n1C)CCN(CC(=O)Nc1nccs1)C2", "cytotoxicity at 70.5 h": -24.8}
{"smiles": "N#Cc1ccc(CC(=O)N2CCCC(n3cccn3)C2)cc1", "note": "(stereo unspecified)", "cytotoxicity at 70.5 h": -5.65}
{"smiles": "O=C1N[C@@H]2CCN(C(=O)c3ccccc3)[C@@H]2C(=O)N1Cc1ccccc1", "cytotoxicity at 70.5 h": -5.37}
{"smiles": "Cc1c(C(=O)N2CCC(N3CCCCC3)CC2)n(C)c2ccc(Cl)cc12", "cytotoxicity at 70.5 h": -0.949}
{"smiles": "CCc1ncc(C(=O)N2CCCC(c3nccn3CCOC)C2)cn1", "note": "(stereo unspecified)", "cytotoxicity at 70.5 h": -0.318}
{"smiles": "Cc1nc(C)c2c(n1)CCN(Cc1ccsc1)CC2", "cytotoxicity at 70.5 h": -0.781}
{"smiles": "O=C(CC1CCCC1)Nc1ccc(-n2cc(Cl)cn2)nc1", "cytotoxicity at 70.5 h": -12.3}
{"smiles": "CN(Cc1cccc(C#N)c1)c1ncc(C(N)=O)cc1Cl", "cytotoxicity at 70.5 h": -8.78}
{"smiles": "CC(C)c1cc(NC(CCO)c2ccccc2)n2nccc2n1", "note": "(stereo unspecified)", "cytotoxicity at 70.5 h": 3.68}
{"smiles": "Cn1ccnc1CNc1c(F)cccc1-n1cccn1", "cytotoxicity at 70.5 h": -7.82}
{"smiles": "CN(CCOCC1CC1)C(=O)Nc1ccc(C#N)c(Cl)c1", "cytotoxicity at 70.5 h": -0.0375}
{"smiles": "Cc1ccc(NC2(C(=O)NCc3c(C)n[nH]c3C)CCCC2)cc1", "cytotoxicity at 70.5 h": -5.51}
{"smiles": "CN(Cc1ccc(-n2ccnc2)cc1)Cc1ncc[nH]1", "cytotoxicity at 70.5 h": -6.87}
{"smiles": "Cn1nc(Cl)cc1C(=O)N1CCC(C(=O)c2nc3ccccc3s2)CC1", "cytotoxicity at 70.5 h": 10.5}
{"smiles": "CC(C)N1CC[C@@H]2OC[C@H](C(=O)Nc3cccnc3)C[C@@H]2C1", "cytotoxicity at 70.5 h": 25.1}
{"smiles": "CCC/N=c1/c(NC(=O)NCCOC)c(O)oc2ccccc12", "cytotoxicity at 70.5 h": 25.8}
{"smiles": "CNc1snc(C)c1C(=O)N1CCCC(n2ccnc2C(C)C)C1", "note": "(stereo unspecified)", "cytotoxicity at 70.5 h": -5.8}
{"smiles": "CNCc1ccc([C@@H]2CN(C)C[C@H]2C(N)=O)cc1", "cytotoxicity at 70.5 h": 19.9}
{"smiles": "O=S(=O)(CC1CCCCO1)Nc1cnn(CC(F)F)c1", "note": "(stereo unspecified)", "cytotoxicity at 70.5 h": -7.78}
{"smiles": "O=C(O)[C@@H]1CN(Cc2cnc(C3CCCCC3)nc2)C[C@H]1C1CC1", "cytotoxicity at 70.5 h": 10.9}
{"smiles": "Cc1ccc(CNc2cc(C(=O)N3CCOCC3)nc(C)n2)cc1", "cytotoxicity at 70.5 h": -9.84}
{"smiles": "COc1ccc(C(=O)N2CC(=O)N(C3CCC3)CC(O)C2)c(OC)c1", "note": "(stereo unspecified)", "cytotoxicity at 70.5 h": -1.09}
{"smiles": "CS(=O)(=O)c1ccc(NCCC2CCCO2)c(S(C)(=O)=O)c1", "note": "(stereo unspecified)", "cytotoxicity at 70.5 h": -16.8}
{"smiles": "CCCN1CCC(NC(=O)NCCc2nc(CC)c(C)s2)CC1", "cytotoxicity at 70.5 h": -1.97}
{"smiles": "CN1CCN(c2ncc(CNCCCc3cccc(F)c3)cn2)CC1", "cytotoxicity at 70.5 h": 25.4}
{"smiles": "O=S(=O)(Cc1cccc(F)c1)NCC(O)Cc1ccccc1", "note": "(stereo unspecified)", "cytotoxicity at 70.5 h": -10.7}
{"smiles": "N#Cc1cccc(N2CCCC3(C2)CN(c2nncs2)CCO3)c1", "note": "(stereo unspecified)", "cytotoxicity at 70.5 h": 14}
{"smiles": "CNC(=O)c1cnc(/C=C/c2ccc(OC)c(O)c2)s1", "cytotoxicity at 70.5 h": -6.12}
{"smiles": "CS(=O)(=O)NC1CCN(C(=O)c2cnc(-c3cccnc3)nc2)CC1", "cytotoxicity at 70.5 h": -7.35}
{"smiles": "CN(Cc1ccccn1)C(=O)c1nn(C)c2c1CCN(CC1CC1)C2", "cytotoxicity at 70.5 h": -1.96}
{"smiles": "CCS(=O)(=O)CCN(C)Cc1cc(C)ccc1OC", "cytotoxicity at 70.5 h": -13.6}
{"smiles": "O=C(c1ccncc1)N1CC[C@@H]2CN(C3CCOCC3)CCO[C@@H]2C1", "cytotoxicity at 70.5 h": -9.58}
{"smiles": "CN1CCC2(Cc3ccccc3NC2=O)C1", "note": "(stereo unspecified)", "cytotoxicity at 70.5 h": -3.49}
{"smiles": "COC(=O)C(NC(=O)CC(C)C)c1cc(F)ccc1F", "note": "(stereo unspecified)", "cytotoxicity at 70.5 h": -1.44}
{"smiles": "CN1C(=O)CC2(CCN(S(=O)(=O)c3cccs3)CC2)c2ccccc21", "cytotoxicity at 70.5 h": 8.66}
{"smiles": "CCc1nc(C2CCCN(C(=O)c3ccccc3F)C2)no1", "note": "(stereo unspecified)", "cytotoxicity at 70.5 h": -2.67}
{"smiles": "COc1ccc2c(c1)CCCN(C(C)C(=O)NC(N)=O)C2", "note": "(stereo unspecified)", "cytotoxicity at 70.5 h": -8.05}
{"smiles": "CN(C)c1ncc(CN2CCC(c3nnsc3S(C)(=O)=O)CC2)cn1", "cytotoxicity at 70.5 h": -19.4}
{"smiles": "Cc1ccc2cc(CNCCCN3CCOCC3)c(=O)[nH]c2c1", "cytotoxicity at 70.5 h": -13}
{"smiles": "CCC(=O)N1CCCC1c1ccsc1", "note": "(stereo unspecified)", "cytotoxicity at 70.5 h": -5.78}
{"smiles": "Cc1cnc(N2C(=O)CSC2c2ccc(N(C)C)cc2)s1", "note": "(stereo unspecified)", "cytotoxicity at 70.5 h": -8.63}
{"smiles": "Cc1ncsc1C(=O)N1CCCC(c2cc(C(F)F)n3ncnc3n2)C1", "note": "(stereo unspecified)", "cytotoxicity at 70.5 h": 0.833}
{"smiles": "Cc1ccc2[nH]c(CN(C)Cc3n[nH]c4c3CCC4)nc2c1", "cytotoxicity at 70.5 h": -3.51}
{"smiles": "CC(C)CN1CCn2c(nc3cc(C(=O)NC(C)C)ccc32)C1", "cytotoxicity at 70.5 h": -11.8}
{"smiles": "CC[C@@]1(O)CCN(C(=O)CN(C)Cc2ccc(F)cc2)C[C@H]1O", "cytotoxicity at 70.5 h": 17.3}
{"smiles": "CCc1nc(C(=O)N2CCOCC2CC(=O)c2ccccc2)c[nH]1", "note": "(stereo unspecified)", "cytotoxicity at 70.5 h": -8.59}
{"smiles": "O=S(=O)(C1CC1)N1CCO[C@H]2[C@H](Oc3cccnc3)CC[C@@H]21", "cytotoxicity at 70.5 h": -4.91}
{"smiles": "Cc1cc(C)n(-c2cncc(NCCNC(=O)c3cccnc3)n2)n1", "cytotoxicity at 70.5 h": -3.57}
{"smiles": "Cc1noc(C)c1CN(C)C(=O)C1(NS(C)(=O)=O)CCCCC1", "cytotoxicity at 70.5 h": -0.856}
{"smiles": "CN(C)C(=O)c1ccn(-c2ccc3ccccn23)n1", "cytotoxicity at 70.5 h": -4.81}
{"smiles": "CC(C)CC(=O)N1CCCn2cnc(CN3CCCC3=O)c2C1", "cytotoxicity at 70.5 h": -4.92}
{"smiles": "CC(C)c1ncc2c(n1)CN(Cc1nnc(Cc3ccccc3)o1)CC2", "cytotoxicity at 70.5 h": -5.27}
{"smiles": "O=C1CCCN1CC1CN(C(=O)CC2CCCC2)Cc2nccn2C1", "note": "(stereo unspecified)", "cytotoxicity at 70.5 h": -8.43}
{"smiles": "O=C1CCN(CCS(=O)(=O)c2ccc(Cl)cc2)CCN1", "cytotoxicity at 70.5 h": -11.7}
{"smiles": "CN(C)C(=O)CN1CCC2(CCCN(c3ncc(F)cn3)C2)C1=O", "note": "(stereo unspecified)", "cytotoxicity at 70.5 h": 16.4}
{"smiles": "CCc1ccc(C(C)NC(=O)CCc2nc(-c3nnc[nH]3)no2)cc1", "note": "(stereo unspecified)", "cytotoxicity at 70.5 h": -4.48}
{"smiles": "CC(C)(C)C(N)c1nc(-c2nnc[nH]2)no1", "note": "(stereo unspecified)", "cytotoxicity at 70.5 h": -2.07}
{"smiles": "OC1(CNCc2ccc(F)c(C(F)(F)F)c2)CCSCC1", "cytotoxicity at 70.5 h": -7.48}
{"smiles": "Cc1cc(C)c2nc(C)cc(C(=O)NCc3csc(N(C)C)n3)c2c1", "cytotoxicity at 70.5 h": 27.3}
{"smiles": "CN(C)Cc1nc2c(o1)CN(C(=O)c1ccncc1F)C2", "cytotoxicity at 70.5 h": -8.38}
{"smiles": "Cc1nn(C)cc1C(=O)N1CCCC(n2cncn2)C1", "note": "(stereo unspecified)", "cytotoxicity at 70.5 h": -9.27}
{"smiles": "OC1(CNc2ccc(-c3nc(C4CC4)no3)cn2)CCCCC1", "cytotoxicity at 70.5 h": 22}
{"smiles": "COc1ccc(CC(=O)N(C)C2CCN(C)C2=O)cc1F", "note": "(stereo unspecified)", "cytotoxicity at 70.5 h": -6.33}
{"smiles": "O=C(CC1CCCO1)NCc1ccccc1Cn1cncn1", "note": "(stereo unspecified)", "cytotoxicity at 70.5 h": -3.75}
{"smiles": "CN(C)c1cccc(C2CCCN2S(=O)(=O)c2cn(C)cn2)n1", "note": "(stereo unspecified)", "cytotoxicity at 70.5 h": -8.98}
{"smiles": "COc1cccc(C(C(=O)O)N2CCSCC2)c1F", "note": "(stereo unspecified)", "cytotoxicity at 70.5 h": 13}
{"smiles": "CC(C(=O)Nc1ccon1)n1ccc(C(F)(F)F)n1", "note": "(stereo unspecified)", "cytotoxicity at 70.5 h": 15.3}
{"smiles": "Cn1cccc1C(=O)N1CCO[C@@H]2CN(Cc3ccco3)C[C@@H]2C1", "cytotoxicity at 70.5 h": -5.04}
{"smiles": "Cc1cc(C(F)(F)F)nn1CC(C)C(=O)Nc1cccnc1", "note": "(stereo unspecified)", "cytotoxicity at 70.5 h": -3.81}
{"smiles": "OC(COCc1ccccc1F)CN1CCC(Cn2cccn2)CC1", "note": "(stereo unspecified)", "cytotoxicity at 70.5 h": -0.0861}
{"smiles": "CCS(=O)(=O)NC[C@]12COC[C@H]1CN(Cc1cc(C)on1)C2", "cytotoxicity at 70.5 h": -6.04}
{"smiles": "CCn1ncc2c1C(COC)N(C(=O)c1ccc3c(c1)OCO3)CC2", "note": "(stereo unspecified)", "cytotoxicity at 70.5 h": -5.04}
{"smiles": "Cn1cnc2c1CCN(Cc1ccc(C(=O)N3CCCC3)cc1)C2", "cytotoxicity at 70.5 h": -3.6}
{"smiles": "COc1ncccc1-c1nc(-c2ccccn2)nn1C1CCN(C)CC1", "cytotoxicity at 70.5 h": -6.87}
{"smiles": "CCNC(=O)N1CCC2(CC1)CCn1c(-c3cccc(OC)c3)cnc12", "cytotoxicity at 70.5 h": -6.74}
{"smiles": "NC(=O)CN1CCC(NC2CSCCc3ccccc32)CC1", "note": "(stereo unspecified)", "cytotoxicity at 70.5 h": 5.08}
